These results are taken from publication PMC9268168, “Novel Nitric Oxide Donor Dinitroazetidine-Coumarin Hybrids as Potent Anti-Intrahepatic Cholangiocarcinoma Agents” (Molecules, 2022).

Series [1] has as its system RBE cells. Put plainly: Intracellular NO measurement with fluorescent probe DAF-FM DA (flow cytometry). The series is classed as cell-based, human. Conditions: 2 μM, 2.5 h; for MFI (fold of RRx-001), intracellular NO: DAF-FM DA. How it is done:
Intracellular NO was measured with 3-amino,4-aminomethyl-2′,7′-diflfluorescein, diacetate (DAF-FM DA, Beyotime, Shanghai, China). In detail, RBE cells in the logarithmic growth phase were collected and spread on 6-well plate at a density of 150,000 per well overnight. The adherent cells were pretreated with 5 μM DAF-FM DA at 37 °C for 20 min and then incubated with RRx-001, compounds 2–6 and 21 for 2.5 h, followed by flow cytometer analysis (BD Accuri C6, Shanghai, China). Cells were washed three times with cold PBS between each step. The experiment was performed three times.
(In general: Flow cytometry measures light scatter and fluorescence of single cells or particles in a stream.)

For series [2], the system named is RBE cell lines. Put plainly: cells. To be noted: Homo sapiens, 48 h, read-out: IC50, antiproliferation activities in RBE.
Protocol: Tested compounds were dissolved into DMSO (Sigma-Aldrich, Shanghai, China) to prepare a solution with concentration of 2 mM for use.
The in vitro antiproliferation of the chemical compounds was measured by the MTT reagent, as described in the literature. Briefly, 4000–6000 cells in 100 μL of medium per well were plated in 96-well plates. […] At the same time, blank group without adding cells was set. […] Last, the MTT-containing medium was discarded and 150 μL of DMSO per well was added to dissolve the formazan crystals newly formed. Absorbance of each well was determined by a microplate reader (Synergy H4, Bio-Tek) at a 570 nm wavelength. The inhibition rates of proliferation were calculated with the following equation:Inhibition ratio (%) = (ODDMSO−ODcompd)/(ODDMSO−ODblank) × 100
Series [3] deals with RBE cell lines. Put plainly: Cell cycle analysis (PI staining, flow cytometry). The series is classed as cell-based, human. To be noted: 1 μM. How it is done:
The experimental cells RBE were cultured and collected when the cells were in good growth state. After digesting with 0.25% trypsin (Beyotime), the cells were collected and centrifuged. The cells were inoculated in petri dishes (Φ = 6 cm) with an inoculation density of 500,000 cells per dish and 3 mL medium per dish. The cells were placed in the incubator, changed to serum-free RPMI 1640 medium after 12 h, left to continue to culture for 12 h, and then compounds were added. Compounds groups with the concentration of 1 μM and control group treated with DMSO were set. The original culture medium was removed, and the compounds were added. After incubation for 16h, the cells were collected and centrifuged at 1000 r for 5 min. The cells were rinsed twice with PBS, and the supernatant was removed by centrifugation. 75% ethanol (1 mL) was added and placed in a refrigerator at −20 °C overnight for cell fixation.
The fixed cells were centrifuged at 2000 r for 5 min, the supernatant was discarded, 1 mL of PBS solution was added, and the supernatant was resuspended and discarded. 0.5 mL of PI staining solution was added to each tube (staining buffer: 20 × PI staining solution: 50 × RNase A = 100:5:2) and stored at room temperature for 30 min in the dark for testing on the flow cytometry.

Series [4] deals with Cyclin B1, PARP and Caspase-3 in RBE cell lines. Put plainly: Western blot analysis of cell-cycle- and apoptosis-related proteins. The series is classed as cell-based, human. To be noted: 1 and 4 μM. Here is the method:
Approximately 2 × 10^5 cells of RBE were seeded in 6-well plates. After treated with compound 3 (1 and 4 μM) for 24 h, cells were lysed with ice-cold RIPA lysis buffer (Beyotime, Shanghai, China) for 30 min and then centrifuged at 12,000 rpm for 10 min at 4 °C. The total protein concentration was determined by BCA protein assay kit (Beyotime, Shanghai, China). Equal amounts (20 μg per load) of protein samples were subjected to 12% SDS-PAGE gel and transferred onto polyvinylidene fluoride (PVDF) membranes (Epizyme Biotech, Shanghai, China), which were then blocked with 5% bovine serum albumin (Ebsdorfelgrund, Hesse, Germany) for 1.5 h and reacted with primary antibodies (1: 1000 diluted) at 4 °C overnight. Subsequently, the PVDF membranes were incubated in the secondary antibody (1: 10,000 diluted) for 2 h at room temperature. ECL chemiluminescent solution was used for color rendering. The antibodies against Cyclin B1, Caspase 3, and PARP were purchased from Cell Signaling Technology. The secondary antibodies conjugated with horseradish peroxidase (HRP) were from AoWei Biology and CST. The protein bands were developed by the chemiluminescent reagents (Meilunbio, Shanghai, China).

The term melting point denotes the temperature of the solid-liquid transition. For `Cc1c(Cc2ccccc2)c(=O)oc2cc(OCCN3CC([N+](=O)[O-])([N+](=O)[O-])C3)ccc12`, the melting point fell in the range of 173 to 175 °C.

`Cc1cc(=O)oc2cc(OCCOCC(=O)N3CC([N+](=O)[O-])([N+](=O)[O-])C3)ccc12`: the melting point was 82.5 to 84.5 °C.

With `Cc1c(Cc2ccc(F)cc2)c(=O)oc2cc(OCCN3CC([N+](=O)[O-])([N+](=O)[O-])C3)ccc12`, the melting point is 137.9 to 139.2 °C.

As for `Cc1c(Cc2ccccc2)c(=O)oc2cc(OCCOCC(=O)N3CC([N+](=O)[O-])([N+](=O)[O-])C3)ccc12` [Compound 5, 3-Benzyl-7-(2-(2-(3,3-dinitroazetidin-1-yl)-2-oxoethoxy)ethoxy)-4-methyl-2H-chromen-2-one], the melting point lay within 82.5 to 84.5 °C. Moreover, the “MFI (fold of RRx-001), intracellular NO” value in series [1] was 0.83 fold of RRx-001. For the same compound, the IC50 in series [2] stood at 0.71 µM.

The compound `Cc1c(Cc2ccc(F)cc2)c(=O)oc2cc(OCCCCN3CC([N+](=O)[O-])([N+](=O)[O-])C3)ccc12` displayed a melting point of 113.3 to 115.1 °C.

`Cc1c(Cc2ccc(C#N)cc2)c(=O)oc2cc(OCCCCN3CC([N+](=O)[O-])([N+](=O)[O-])C3)ccc12` returned a melting point of 135.1 to 136.3 °C.

In turn, `Cc1c(Cc2ccc(C#N)cc2)c(=O)oc2cc(OCCOCC(=O)N3CC([N+](=O)[O-])([N+](=O)[O-])C3)ccc12` [Compound 3, 4-((7-(2-(2-(3,3-Dinitroazetidin-1-yl)-2-oxoethoxy)ethoxy)-4-methyl-2-oxo-2H-chromen-3-yl)methyl)benzonitrile] had a melting point of 74.9 to 76.3 °C. Besides, the “cell cycle effect (in words)” value in series [3] was “arrest the cell cycle at G2/M phase”. Further, in series [3] (DMSO control 18%), the “mean percentage of cells in the G2/M phase” value is 23%. In series [1], the “MFI (fold of RRx-001), intracellular NO” value is given as 1.36 fold of RRx-001. In series [1] (compared to RRx-001), the “NO release level in RBE cells (in words)” value is “highest NO release concentration”. The “expression of PARP, Caspase-3 and Cyclin B1 (Western blotting)” value in series [4] is on record as “downregulated”. Further, the IC50 in series [2] turned out to be 0.95 µM.

Regarding `Cc1c(Cc2ccc(C#N)cc2)c(=O)oc2cc(OCCN3CC([N+](=O)[O-])([N+](=O)[O-])C3)ccc12`, the melting point was in the range of 122.5 to 124.1 °C.

With `Cc1cc(=O)oc2cc(OCCCCN3CC([N+](=O)[O-])([N+](=O)[O-])C3)ccc12` [Compound 21, 7-(4-(3,3-Dinitroazetidin-1-yl)butoxy)-4-methyl-2H-chromen-2-one], the melting point was in the range of 85.8 to 87.2 °C. In addition, in series [1], the “MFI (fold of RRx-001), intracellular NO” value is on record as 1.13 fold of RRx-001. Besides, in series [2], the IC50 was determined as 1.09 µM.

With `O=C(CBr)N1CC([N+](=O)[O-])([N+](=O)[O-])C1` [RRx-001, reference compound], the “MFI (fold of RRx-001), intracellular NO” value in series [1] was 1 fold of RRx-001. The IC50 in series [2] came to 2 µM.

Take `Cc1cc(=O)oc2cc(OCCN3CC([N+](=O)[O-])([N+](=O)[O-])C3)ccc12`: the melting point fell in the range of 91 to 93 °C.

Consider `Cc1c(Cc2ccc(C(F)(F)F)cc2)c(=O)oc2cc(OCCOCC(=O)N3CC([N+](=O)[O-])([N+](=O)[O-])C3)ccc12` [Compound 2, 7-(2-(2-(3,3-Dinitroazetidin-1-yl)-2-oxoethoxy)ethoxy)-4-methyl-3-(4-(trifluoromethyl)benzyl)-2H-chromen-2-one], for which the melting point was 65.3 to 67 °C. Besides, the “MFI (fold of RRx-001), intracellular NO” value in series [1] is reported as 0.95 fold of RRx-001. In addition, the IC50 in series [2] turned out to be 1.11 µM.

In turn, `Cc1c(Cc2ccccc2)c(=O)oc2cc(OCCCN3CC([N+](=O)[O-])([N+](=O)[O-])C3)ccc12` registered a melting point of 115.1 to 116.8 °C.

`Cc1cc(=O)oc2cc(OCCCN3CC([N+](=O)[O-])([N+](=O)[O-])C3)ccc12` showed a melting point of 78.5 to 79.6 °C.

The compound `Cc1c(Cc2ccc(C(F)(F)F)cc2)c(=O)oc2cc(OCCN3CC([N+](=O)[O-])([N+](=O)[O-])C3)ccc12` displayed a melting point of 98 to 99.8 °C.

As to `Cc1c(Cc2ccc(F)cc2)c(=O)oc2cc(OCCOCC(=O)N3CC([N+](=O)[O-])([N+](=O)[O-])C3)ccc12` [Compound 4, 7-(2-(2-(3,3-Dinitroazetidin-1-yl)-2-oxoethoxy)ethoxy)-3-(4-fluorobenzyl)-4-methyl-2H-chromen-2-one], the melting point lay in the range of 70 to 71.9 °C. The “MFI (fold of RRx-001), intracellular NO” value in series [1] is on record as 0.86 fold of RRx-001. Moreover, the IC50 in series [2] is 0.89 µM.
